EPA's ToxValDB 9.5 (doi:10.2903/j.efsa.2012.2504)

Tests used:
Rattus norvegicus = settings: for LD50: acute, mortality
Anas platyrhynchos = settings: oral, mortality

## O=C(O)c1ccccc1C(F)(F)F [2-(Trifluoromethyl)benzoic acid]
Rattus norvegicus; oral
  LD50: > 2000 mg/kg

## COCCOC(=O)C(C#N)(C(=O)c1ccccc1C(F)(F)F)c1ccc(C(C)(C)C)cc1 (stereo not given) [Cyflumetofen]
Rattus norvegicus; oral
  LD50: > 2000 mg/kg
Rattus norvegicus; chronic, duration: 2 years, organ weight
  NOAEL: 16.5 mg/kg-day
Rattus norvegicus; chronic, no effects
  NOAEL: 34.6 mg/kg-day
Rattus norvegicus; subchronic, duration: 90 days, oral, histopathology: nonneoplastic
  NOAEL: 16.5 mg/kg-day
Colinus virginianus; acute, oral, diet, mortality
  LC50: > 1410 mg/kg-day
Colinus virginianus; acute, oral, mortality
  LD50: > 2000 mg/kg
Colinus virginianus; reproduction developmental, M
  NOEC: ≥ 84.4 mg/kg-day
Anas platyrhynchos; acute, unspecified
  LD50: > 2250 mg/kg
Anas platyrhynchos; short-term, feed
  LC50: > 2380 mg/kg-day
